According to patent publication US8673909B2, “Indole compounds and methods for treating visceral pain” (NeurAxon, Inc., priority 2007, dated 2014):
Where a name gives a salt, the structure may show the parent alone. Read-outs that look alike come from different tables or passages of the source. Each block holds one compound with its values, some of them ahead of it.

How the values were obtained:
[1] = biological target: T1, Nitric oxide synthase (neuronal, human recombinant) nNOS (Homo sapiens, UniProt P29475); assay: nNOS (human) enzyme assay, [3H]-L-arginine to L-citrulline; format: biochemical
T1 construct: purchased Axxora LLC ALX-201-068

5-HT1D = 5-HT1D (Bos taurus, UniProt F1MMU1); assay: 5-HT1D binding assay (agonist radioligand), bovine caudate membranes
Protocol: (§1) 5-HT1D binding assays (agonist radioligand) were performed using bovine caudate membranes according to the methods of Heuring and Peroutka (J. Neurosci., 7: 894-903 (1987)). 5-HT1B (rat cerebral cortex) binding assays (agonist radioligand) were performed according to the method of Hoyer et. al. (Eur. J. Pharmacol., 118: 1-12 (1995)). For the purpose of result analysis, the specific ligand binding to the receptors is defined as the difference between the total binding and the nonspecific binding as determined in the presence of an excess of unlabelled ligand. The results are expressed as a percent of control specific binding obtained in the presence of the test compounds.

[2] = biological target: T2, Nitric oxide synthase (endothelial, human recombinant) eNOS (Homo sapiens, UniProt P29474); assay: eNOS (human) enzyme assay, [3H]-L-arginine to L-citrulline; format: biochemical
T2 construct: purchased Axxora LLC ALX-201-070

[3] = biological target: Recombinant human inducible NOS (iNOS) (Homo sapiens, UniProt P35228); assay: Human iNOS assay, radiometric; format: biochemical; conditions: Table 10, human iNOS; read-out: iNOSh
Protocol: Recombinant human inducible NOS (iNOS) was produced in Baculovirus-infected Sf9 cells (ALEXIS). […] 15 μL of test substances are added to the mixture with the specific enzyme and pre-incubated at RT for 15 min. • 2. […] The incubation is carried out at 37° C. for 45 min. • 4. […] An aliquot 70 μL of the supernatant is added to 100 μL scintillation fluid. • 8.
The total volume of the reaction mixture is 150 μL in every well. All assays are performed at least in duplicate. Standard deviations are 10% or less.

5-HT1B = biological target: T3, 5-HT1B (Rattus norvegicus, UniProt P28564); assay: 5-HT1B binding assay (agonist radioligand), rat cerebral cortex
T3 construct: from tissue; host or cells: rat cerebral cortex
Protocol: as §1, with “compounds. IC50 values (concentration causing a half-maximal inhibition of control specific binding) and Hill coefficients (nH) were determined by non-linear regression analysis of the competition curves using Hill equation curve fitting and the inhibition constants (Ki) were calculated from the Cheng Prusoff equation (Ki=IC50/(1+(L/KD)), where L=concentration of radioligand in the assay, and KD=affinity of the radioligand for the receptor).” for “compounds.”

[4] = test system: rats with experimental pancreatitis; assay: Pancreatitis visceral pain model (DBTC), referred abdominal hypersensitivity, von Frey; format: in vivo, rat
Protocol: Adult male Sprague Dawley rats (Harlan, Indianapolis, Ind.), weighing 150-200 g were maintained in a climate-controlled room with ad lib food and water on a 12-h light/dark cycle (lights on at 07:00 hours). All procedures followed the policies of the International Association for the Study of Pain and the NIH guidelines for the handling and use of laboratory animals. Studies were approved by the University of Arizona IACUC.
Pancreatitis was produced by a tail vein injection of dibutyltin dichloride (DBTC, Aldrich, Milwaukee, Wis., 0.25 cc) dissolved in 100% ethanol at a dose of 8 mg/kg under isofluorane anesthesia (2-3 liters/min, 4.0%/vol until anesthetized, then 2.5%/vol throughout the procedure) (Vera-Portocarrero et al., 2006). Control animals were injected with the vehicle solution only (100% ethanol, 0.25 cc).
Referred abdominal hypersensitivity in the pancreatitis model was quantified by measuring the number of withdrawals events evoked by application of a calibrated von Frey filament (determined by either abdominal withdrawal, licking of the abdominal area, or whole body withdrawal). Rats were placed inside Plexiglas boxes on an elevated fine fiberglass screen mesh and acclimated for 30 minutes before testing. A 4 g von Frey filament was applied from underneath through the mesh floor, to the abdominal area at different points on the surface. […] The mean occurrence of withdrawal events in each trial is expressed as the number of responses to 10 applications as previously described (Vera-Portocarrero et al., 2003).
Significant differences between each experimental group for the behavioral test across time were detected by a two-factor ANOVA follow by the Fishers Least Significance Difference post-hoc test. One-factor ANOVA was used to detect significant differences in behavioral outcomes within each experimental group over time. A linear regression analysis was used to detect the dose-dependency of the effects. Significance was established at the p<0.05 level.

[5] = Table 11, bovine 1D receptor binding, read-out: 5HT1D
[6] = Table 15, read-out: IC50 in μM (Human eNOS)

T2 sequence (P29474 whole entry): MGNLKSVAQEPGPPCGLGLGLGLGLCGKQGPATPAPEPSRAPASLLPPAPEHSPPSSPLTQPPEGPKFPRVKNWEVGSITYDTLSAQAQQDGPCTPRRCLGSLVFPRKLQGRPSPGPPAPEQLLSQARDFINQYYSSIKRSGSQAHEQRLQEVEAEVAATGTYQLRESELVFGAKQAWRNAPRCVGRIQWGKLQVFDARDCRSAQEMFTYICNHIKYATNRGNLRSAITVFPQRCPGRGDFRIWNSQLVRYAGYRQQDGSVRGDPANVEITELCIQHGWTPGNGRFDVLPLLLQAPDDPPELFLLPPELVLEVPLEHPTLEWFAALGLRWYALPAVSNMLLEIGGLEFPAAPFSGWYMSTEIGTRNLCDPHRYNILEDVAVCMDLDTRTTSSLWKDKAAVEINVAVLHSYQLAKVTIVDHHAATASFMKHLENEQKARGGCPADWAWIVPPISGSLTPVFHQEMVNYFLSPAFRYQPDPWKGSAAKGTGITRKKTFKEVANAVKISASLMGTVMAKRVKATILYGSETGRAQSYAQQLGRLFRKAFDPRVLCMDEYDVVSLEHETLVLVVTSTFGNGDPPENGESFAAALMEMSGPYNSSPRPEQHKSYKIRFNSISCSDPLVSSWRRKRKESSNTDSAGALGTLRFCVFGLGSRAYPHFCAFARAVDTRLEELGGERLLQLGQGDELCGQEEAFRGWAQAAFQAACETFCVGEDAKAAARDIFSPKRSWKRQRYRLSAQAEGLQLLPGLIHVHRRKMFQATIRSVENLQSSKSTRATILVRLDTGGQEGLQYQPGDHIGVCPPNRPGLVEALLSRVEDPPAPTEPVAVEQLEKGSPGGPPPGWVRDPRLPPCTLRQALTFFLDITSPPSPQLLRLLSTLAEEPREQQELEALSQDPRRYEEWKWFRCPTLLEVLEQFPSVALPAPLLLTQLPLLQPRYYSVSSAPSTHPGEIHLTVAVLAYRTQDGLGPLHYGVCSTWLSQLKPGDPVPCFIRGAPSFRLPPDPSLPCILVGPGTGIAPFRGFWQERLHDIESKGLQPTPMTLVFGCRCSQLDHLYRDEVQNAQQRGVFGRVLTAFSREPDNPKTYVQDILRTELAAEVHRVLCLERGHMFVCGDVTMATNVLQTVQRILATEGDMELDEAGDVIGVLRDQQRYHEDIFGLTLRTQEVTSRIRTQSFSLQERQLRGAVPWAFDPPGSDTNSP
Sequence of 5-HT1D (F1MMU1 1-377): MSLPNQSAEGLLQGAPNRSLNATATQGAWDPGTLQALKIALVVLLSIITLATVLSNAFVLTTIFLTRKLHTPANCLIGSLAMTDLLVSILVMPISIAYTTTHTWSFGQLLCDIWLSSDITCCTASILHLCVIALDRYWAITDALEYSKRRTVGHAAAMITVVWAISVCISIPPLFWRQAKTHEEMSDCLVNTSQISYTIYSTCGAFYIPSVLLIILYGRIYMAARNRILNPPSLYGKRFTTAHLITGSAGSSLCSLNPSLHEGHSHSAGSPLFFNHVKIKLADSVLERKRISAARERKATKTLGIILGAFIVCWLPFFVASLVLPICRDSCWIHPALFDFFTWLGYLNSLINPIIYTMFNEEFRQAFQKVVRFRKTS
T1 sequence (P29475 whole entry): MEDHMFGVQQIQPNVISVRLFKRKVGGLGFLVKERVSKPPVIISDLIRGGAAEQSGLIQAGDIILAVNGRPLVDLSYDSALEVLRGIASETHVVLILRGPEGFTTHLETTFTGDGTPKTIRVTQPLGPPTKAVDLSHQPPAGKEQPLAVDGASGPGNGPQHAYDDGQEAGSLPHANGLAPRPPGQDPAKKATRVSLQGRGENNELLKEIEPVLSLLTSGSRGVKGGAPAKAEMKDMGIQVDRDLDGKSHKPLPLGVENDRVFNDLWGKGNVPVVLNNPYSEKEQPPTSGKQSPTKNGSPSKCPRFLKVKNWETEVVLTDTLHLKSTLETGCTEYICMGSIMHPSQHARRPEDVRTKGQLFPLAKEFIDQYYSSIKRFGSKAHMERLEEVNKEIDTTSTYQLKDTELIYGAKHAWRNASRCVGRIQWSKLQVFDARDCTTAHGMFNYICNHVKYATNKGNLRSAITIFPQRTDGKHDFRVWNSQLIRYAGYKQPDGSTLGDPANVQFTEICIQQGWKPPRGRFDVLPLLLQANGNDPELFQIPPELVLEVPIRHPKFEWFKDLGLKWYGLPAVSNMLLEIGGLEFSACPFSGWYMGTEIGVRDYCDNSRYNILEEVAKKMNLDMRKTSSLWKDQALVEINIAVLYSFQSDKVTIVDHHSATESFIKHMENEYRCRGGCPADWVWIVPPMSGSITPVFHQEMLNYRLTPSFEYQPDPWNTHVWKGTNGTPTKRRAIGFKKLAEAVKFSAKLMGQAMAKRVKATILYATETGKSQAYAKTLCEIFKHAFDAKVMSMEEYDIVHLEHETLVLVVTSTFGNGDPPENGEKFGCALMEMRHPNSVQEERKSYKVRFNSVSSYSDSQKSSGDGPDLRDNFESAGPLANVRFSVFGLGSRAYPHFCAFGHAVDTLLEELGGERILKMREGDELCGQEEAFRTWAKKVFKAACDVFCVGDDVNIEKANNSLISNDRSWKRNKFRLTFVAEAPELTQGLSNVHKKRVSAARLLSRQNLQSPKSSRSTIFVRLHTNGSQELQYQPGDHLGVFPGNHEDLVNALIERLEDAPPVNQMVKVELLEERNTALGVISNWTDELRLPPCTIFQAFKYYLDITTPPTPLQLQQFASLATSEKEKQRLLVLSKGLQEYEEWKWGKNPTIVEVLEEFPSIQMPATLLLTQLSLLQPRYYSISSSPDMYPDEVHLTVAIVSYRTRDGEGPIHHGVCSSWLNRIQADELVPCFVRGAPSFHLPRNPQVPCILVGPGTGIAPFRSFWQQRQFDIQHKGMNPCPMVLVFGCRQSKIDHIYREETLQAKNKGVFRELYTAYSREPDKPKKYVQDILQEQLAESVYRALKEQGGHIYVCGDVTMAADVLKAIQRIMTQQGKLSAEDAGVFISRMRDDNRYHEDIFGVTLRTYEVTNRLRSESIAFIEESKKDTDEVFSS
T3 sequence (P28564 whole entry): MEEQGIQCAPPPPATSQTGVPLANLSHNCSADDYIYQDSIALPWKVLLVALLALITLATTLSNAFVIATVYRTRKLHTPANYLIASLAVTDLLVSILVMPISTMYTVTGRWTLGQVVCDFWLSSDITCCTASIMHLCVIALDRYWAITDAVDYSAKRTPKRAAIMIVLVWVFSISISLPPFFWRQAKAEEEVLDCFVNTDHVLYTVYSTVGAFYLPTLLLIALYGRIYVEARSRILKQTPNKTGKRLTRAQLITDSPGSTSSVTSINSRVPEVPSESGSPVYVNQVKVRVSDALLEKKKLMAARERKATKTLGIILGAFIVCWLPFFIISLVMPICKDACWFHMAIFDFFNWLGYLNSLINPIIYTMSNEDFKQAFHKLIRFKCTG

eNOS/nNOS ([1]; Table 15, selectivity ratio): 55.6
Compound: CCNC1CCC(c2c[nH]c3ccc(NC(=N)c4cccs4)cc23)C1 (mixture of isomers) [Compound 26, N-(3-(3-(ethylamino)cyclopentyl)-1H-indol-5-yl)thiophene-2-carboximidamide]

IC50 (5-HT1D; [5]): 0.19 µM
IC50 ([2]; Table 10, human eNOS, read-out: eNOSh): 38.7 µM
IC50 ([1]; Table 10, human nNOS, read-out: nNOSh): 0.4 µM
e/n ([1]; Table 10, ratio eNOS/nNOS): 97
IC50 [3]: 35 µM
IC50 (5-HT1B; Table 11, rat 1B receptor binding): 0.85 µM
Compound: CN1CCC(c2c[nH]c3ccc(NC(=N)c4cccs4)cc23)C1 (racemic) [Compound 6, N-(3-(1-methylpyrrolidin-3-yl)-1H-indol-5-yl)thiophene-2-carboximidamide]

Compound: CNC1CCCC(c2c[nH]c3ccc(NC(=N)c4cccs4)cc23)C1 (racemic) [Compound (±)-20, N-(3-((1S,3R)-3-(Methylamino)cyclohexyl)-1H-indol-5-yl)thiophene-2-carboximidamide]
IC50 (5-HT1D; read-out: 5HT 1D, Table 14): 2.8 µM
IC50 (5-HT1B; Table 14, read-out: 5HT 1B): 20 µM

Compound: CNC1CCCC(c2c[nH]c3ccc(NC(=N)c4cccs4)cc23)C1 (single isomer, unassigned) [Compound 20a, N-(3-(3-(methylamino)cyclohexyl)-1H-indol-5-yl)thiophene-2-carboximidamide dihydrochloride]
IC50 (5-HT1D; read-out: 5HT 1D, Table 14, listed as 20a (isomer-1), dihydrochloride): 3.2 µM
IC50 ([2]; Table 14, read-out: Human eNOS): 49.3 µM
IC50 (5-HT1B; Table 14, read-out: 5HT 1B): 1.3 µM

Compound: CNC1CCCC(c2c[nH]c3ccc(NC(=N)c4cccs4)cc23)C1 (single isomer, unassigned) [Compound 20b, N-(3-(3-(methylamino)cyclohexyl)-1H-indol-5-yl)thiophene-2-carboximidamide dihydrochloride]
IC50 (5-HT1D; read-out: 5HT 1D, Table 14, listed as 20b (isomer-2), dihydrochloride): 1.4 µM
IC50 ([2]; Table 14, read-out: Human eNOS): 75 µM
IC50 (5-HT1B; Table 14, read-out: 5HT 1B): 12 µM

Compound: CCN1CC=C(c2c[nH]c3ccc(NC(=N)c4cccs4)cc23)CC1 [Compound 19, N-(3-(1-ethyl-1,2,3,6-tetrahydropyridin-4-yl)-1H-indol-5-yl)thiophene-2-carboximidamide]
IC50 ([2]; Table 13, read-out: Human eNOS): 68.4 µM
eNOS/nNOS ([1]; Table 13, selectivity ratio): 92.4
IC50 ([1]; Table 13, read-out: Human nNOS): 0.74 µM

Compound: N=C(Nc1ccc2[nH]cc(C3=CCN(CCO)CC3)c2c1)c1cccs1 [Compound 24, N-(3-(1-(2-hydroxyethyl)-1,2,3,6-tetrahydropyridin-4-yl)-1H-indol-5-yl)thiophene-2-carboximidamide]
IC50 [2, 6]: 74.1 µM
eNOS/nNOS ([1]; Table 15, selectivity ratio): 99
IC50 ([1]; Table 15, read-out: IC50 in μM (Human nNOS)): 0.748 µM

Compound: N=C(Nc1ccc2[nH]cc(CCN3CCCC3)c2c1)c1cccs1 [Compound 25, N-(3-(2-(pyrrolidin-1-yl)ethyl)-1H-indol-5-yl)thiophene-2-carboximidamide]
IC50 [2, 6]: 9.92 µM
IC50 ([1]; IC50 in μM (Human nNOS), Table 15): 0.427 µM
eNOS/nNOS ([1]; Table 15, selectivity ratio): 23.2

Compound: CN1CCC[C@@H]1Cc1c[nH]c2ccc(NC(=N)c3cccs3)cc12 [Compound 27, (R)—N-(3-((1-Methylpyrrolidin-2-yl)methyl)-1H-indol-5-yl)thiophene-2-carboximidamide]
reversal of tactile allodynia in pancreatitis visceral pain model [4]: reverts the tactile allodynia

Compound: CNS(=O)(=O)Cc1ccc2[nH]cc(CCN(C)C)c2c1 [Sumatriptan, reference compound]
IC50 (5-HT1D; [5]): 0.059 µM
